Test results from patent US6294674A, “Dibenzofuran sulfonamide matrix metalloproteinase inhibitors” (priority 1999, dated 2001).
Where two headings read alike, the source gives them in different places.

Experiments:
[1] = target: T1, stromelysin-1 catalytic domain (MMP03) (Homo sapiens, UniProt P08254); assay: Thiopeptolide assay, stromelysin-1 catalytic domain (SCD, MMP03); assay type: biochemical
T1 construct: SCD (stromelysin-1 catalytic domain); made in house; host or cells: Escherichia coli

[2] = tested on: MMP13; assay: Thiopeptolide assay, MMP13; assay type: biochemical, human; details: Table 1
Protocol: MMP01, MMP07, MMP09, and MMP13 activity was assayed in a method similar to MMP02 and MMP03 (SCD and GCD). MMP01 and MMP09 can be obtained from Washington University School of Medicine, St. Louis, Mo. MMP07 can be obtained in accordance with the known procedure set forth by Ye QZ, Johnson L. L., and Baragi V., "Gene Syntheses and Expression in E. coli for PUMP, a Human Matrix Metalloproteinase" Biochem. and Biophys. […] MMP 13 can be obtained in accordance with the known procedure set forth by Freije J. M. P., et al., "Molecular Cloning and Expression of Collegenase-3, a Novel Human Matrix Metalloproteinase Produced by Breast Carcinomas" J. Bio.
Hydrolysis of the thiopeptolide substrate Ac-Pro-Leu-Gly-thioester-Leu-Leu-Gly-OEt (Bachem) is used as the primary screen to determine IC50 values for MMP inhibitors. A 100 μL reaction contains 1 mM 5,5'-dithiobis(2-nitrobenzoic acid) (DTNB), 100 μM substrate, 0.1% Brij, enzyme, and inhibitor in the appropriate reaction buffer. Activated full-length enzymes are assayed at 5 nM, Stromelysin Catalytic Domain (SCD) at 10 nM, and Gelatinase A Catalytic Domain (GaCD) at 1 nM. Inhibitors are screened from 100 μM to 1 nM. Full-length enzymes are assayed in 50 mM HEPES, 10 mM CaCl2, pH 7.0; SCD in 50 mM MES, 10 mM CaCl2, pH 6.0; and GaCD in 50 mM MOPS, 10 mM CaCl2, 10 μM ZnCl2, pH 7.0.

[3] = target: T2, MMP07 (Homo sapiens, UniProt P09237); assay: Thiopeptolide assay, MMP07; assay type: biochemical
T2 construct: made in house; host or cells: Escherichia coli
T2 sequence (P09237 95-267): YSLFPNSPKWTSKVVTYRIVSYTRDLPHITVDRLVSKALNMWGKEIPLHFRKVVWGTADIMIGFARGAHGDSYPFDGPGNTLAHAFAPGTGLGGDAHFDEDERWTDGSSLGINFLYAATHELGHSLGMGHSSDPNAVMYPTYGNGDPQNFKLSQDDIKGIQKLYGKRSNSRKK

[4] = target: T3, MMP01 (Homo sapiens, UniProt P03956); assay: Thiopeptolide assay, MMP01; assay type: biochemical
T3 construct: purchased Washington University School of Medicine, St. Louis, Mo
T3 sequence (P03956 100-469): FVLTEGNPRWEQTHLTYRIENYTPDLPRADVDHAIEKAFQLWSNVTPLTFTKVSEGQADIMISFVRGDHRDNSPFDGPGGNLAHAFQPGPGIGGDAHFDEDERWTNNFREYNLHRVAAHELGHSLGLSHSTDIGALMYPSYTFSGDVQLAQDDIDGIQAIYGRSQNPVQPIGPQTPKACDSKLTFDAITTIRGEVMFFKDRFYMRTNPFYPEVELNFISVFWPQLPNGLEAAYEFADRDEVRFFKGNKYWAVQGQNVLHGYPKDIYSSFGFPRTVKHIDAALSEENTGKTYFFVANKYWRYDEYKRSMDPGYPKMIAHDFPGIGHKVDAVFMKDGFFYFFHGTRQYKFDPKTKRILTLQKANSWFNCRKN

[5] = target: gelatinase A catalytic domain (MMP02); assay: Thiopeptolide assay, gelatinase A catalytic domain (GCD, MMP02); assay type: biochemical
[6] = tested on: human ovarian carcinoma xenografts; details: Davies, et al., Cancer Res., 1993; cited from earlier work
[7] = target: T4, MMP09 (Homo sapiens, UniProt P14780); assay: Thiopeptolide assay, MMP09; assay type: biochemical; details: Table 1
T4 construct: purchased Washington University School of Medicine, St. Louis, Mo
Protocol: IC50 values were determined using a thiopeptolide substrate, Ac-Pro-Leu-Gly-thioester-Leu-Leu-Gly-OEt (Ye Q.-Z., Johnson L. L., Hupe D. J., and Baragi V., "Purification and Characterization of the Human Stromelysin Catalytic Domain Expressed in Escherichia coli," Biochemistry, 1992;31:11231-11235). MMP01, MMP07, MMP09, and MMP13 activity was assayed in a method similar to MMP02 and MMP03 (SCD and GCD). MMP01 and MMP09 can be obtained from Washington University School of Medicine, St. Louis, Mo. MMP07 can be obtained in accordance with the known procedure set forth by Ye QZ, Johnson L. L., and Baragi V., "Gene Syntheses and Expression in E. coli for PUMP, a Human Matrix Metalloproteinase" Biochem. and Biophys. Res. Comm., 1992; 186:143-149. MMP 13 can be obtained in accordance with the known procedure set forth by Freije J. M. P., et al., "Molecular Cloning and Expression of Collegenase-3, a Novel Human Matrix Metalloproteinase Produced by Breast Carcinomas" J. Bio. Chem., 1994;269:16766-6773.
Hydrolysis of the thiopeptolide substrate Ac-Pro-Leu-Gly-thioester-Leu-Leu-Gly-OEt (Bachem) is used as the primary screen to determine IC50 values for MMP inhibitors. […] The change in absorbance at 405 riM is monitored on a ThermoMax microplate reader at room temperature continuously for 20 minutes.

[8] = MMP Inhibitor Bioassay (plasma levels after gavage); assay type: in vivo; details: rat, po, 50 mg/kg by gavage
Protocol: Animals are dosed by gavage with either vehicle or compound at 2, 10, or 50 mg/kg. Blood samples are collected from 3-4 animals from each dosing group at 1, 2, 4, 6, and 24 hour postdose, centrifuged, and the plasma immediately frozen at -20° C. Plasma protein is precipitated with an equal volume of acetonitrile and separated by centrifugation at room temperature. The supernate is evaporated to dryness and reconstituted to the original plasma volume with 50 mM Tris, pH 7.6. Ten-fold serial dilutions of the reconstituted plasma samples are prepared in 50 mM Tris, pH 7.6 for dose response assays using the appropriate thiopeptolide assay. The concentration of plasma which yields 50% inhibition of enzyme is determined and used to calculate the inhibitor plasma level from the known IC50 value. […] All control samples are subjected to acetonitrile precipitation and analyzed with the thiopeptolide assay.

[9] = tested on: MMP-13CD; assay: Thiopeptolide assay, MMP-13CD; assay type: biochemical, human; details: Tables 2, 3, 5, 7
[10] = tested on: experimental allergic encephalomyelitis (EAE); details: Gijbels, et al., J. Clin. Invest., 1994; cited from earlier work
[11] = tested on: bovine nasal and pig articular cartilage; details: Andrews et al. 1992; Ellis et al. 1994; cited from earlier work
[12] = Table 1, SCD, read-out: IC50 MMP03
[13] = Table 1, GCD, read-out: IC50 MMP02
[14] = Tables 2, 3, 5, 7, read-out: IC50 MMP 3CD
[15] = Tables 2, 3, 5, 7, read-out: IC50 MMP-7
[16] = Tables 2, 3, 5, 7, read-out: IC50 MMP1
[17] = Tables 2, 3, 5, 7, read-out: IC50 MMP-2CD

T1 sequence (P08254 100-272 limits assumed): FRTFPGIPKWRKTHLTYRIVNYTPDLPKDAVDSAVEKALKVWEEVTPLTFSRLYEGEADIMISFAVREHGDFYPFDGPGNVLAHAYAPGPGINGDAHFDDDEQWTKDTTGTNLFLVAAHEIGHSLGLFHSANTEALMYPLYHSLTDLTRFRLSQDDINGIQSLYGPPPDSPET
T4 sequence (P14780 107-707 limits assumed): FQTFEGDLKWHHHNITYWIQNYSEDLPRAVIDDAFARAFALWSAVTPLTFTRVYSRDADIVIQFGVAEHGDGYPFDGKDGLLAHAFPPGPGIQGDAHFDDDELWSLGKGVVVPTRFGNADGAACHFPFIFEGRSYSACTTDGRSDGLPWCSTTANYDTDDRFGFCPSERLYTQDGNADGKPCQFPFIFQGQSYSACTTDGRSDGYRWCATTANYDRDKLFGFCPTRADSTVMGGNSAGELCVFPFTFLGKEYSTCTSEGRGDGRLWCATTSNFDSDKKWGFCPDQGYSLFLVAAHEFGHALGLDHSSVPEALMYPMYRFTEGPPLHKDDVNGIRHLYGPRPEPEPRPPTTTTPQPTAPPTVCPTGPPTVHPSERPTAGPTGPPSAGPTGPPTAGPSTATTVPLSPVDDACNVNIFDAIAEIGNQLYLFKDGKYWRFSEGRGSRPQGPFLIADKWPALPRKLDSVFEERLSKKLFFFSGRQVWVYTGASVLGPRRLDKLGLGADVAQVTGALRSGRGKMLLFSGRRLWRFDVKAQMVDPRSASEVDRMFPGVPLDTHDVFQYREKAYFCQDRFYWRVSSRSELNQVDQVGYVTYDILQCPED

Compound	IC50 [1, 12]	IC50 [2]	IC50 ([3]; Table 1, read-out: IC50 MMP07)	IC50 ([4]; Table 1, read-out: IC50 MMP01)	IC50 [5, 13]	IC50 [1, 14]	IC50 [9]	IC50 [3, 15]	IC50 [4, 16]	IC50 [5, 17]	further results
2-(Dibenzofuran-2-sulfonylamino)-pentanedioic acid 1-tert-butyl Ester [Example 4]	460 nM	350 nM	3700 nM	91000 nM	120 nM	–	–	–	–	–	–
CNC(=O)[C@H](Cc1ccccc1)NC(=O)[C@H](CC(C)C)[C@H](CSc1cccs1)C(=O)NO [BB-94]	–	–	–	–	–	–	–	–	–	–	survival [6]: prolonged the survival of mice; tumor burden [6]: decreased the tumor burden
O=C(O)[C@H](CCc1ccccc1)NS(=O)(=O)c1ccc2oc3ccccc3c2c1 [Example 1, (S)-2-(Dibenzofuran-2-sulfonylamino)-4-phenyl-butyric acid]	–	–	–	47000 nM	270 nM	–	–	–	–	–	IC50 [7]: 67000 nM; concentration at 24 h ([8]; 24 hours, read-out: plasma levels at 24 hours postdose): 29 µM; Cmax ([8]; at 1 to 4 hours, read-out: peak plasma levels): 71 µM; Tmax ([8]; read-out: time of peak plasma levels): 1 to 4 h
O=C(CC[C@H](NS(=O)(=O)c1ccc2oc3ccccc3c2c1)C(=O)O)NCCc1ccccc1 [Example 5, 2-(Dibenzofuran-2-sulfonylamino)-4-phenethylcarbamoyl-butyric acid]	325 nM	280 nM	6550 nM	39000 nM	76 nM	–	–	–	–	–	–
CCCc1ccc(C(=O)CC(NS(=O)(=O)c2ccc3oc4ccccc4c3c2)C(=O)O)cc1 (stereo not drawn) [Example 6]	3700 nM	7100 nM	87000 nM	100000 nM	2400 nM	–	–	–	–	–	–
O=C(O)[C@H](CCc1ccccc1)NS(=O)(=O)c1ccc2sc3ccccc3c2c1 [Example 7, 2-(Dibenzothiophene-2-sulfonylamino)-4phenyl-butyric acid]	1300 nM	5800 nM	82000 nM	100000 nM	780 nM	–	–	–	–	–	–
O=C(O)[C@H](CCc1ccccc1)NS(=O)(=O)c1ccc2c(c1)oc1ccccc12 [Example 8]	13 nM	32 nM	1200 nM	3500 nM	3.8 nM	–	–	–	–	–	–
O=C(O)[C@H](CCc1ccccc1)NS(=O)(=O)c1ccc2c(c1)Cc1ccccc1-2 [Example 9, (S)-2-(9H-Fluorene-2-sulfonylamino)-4-phenyl-butyric acid]	46.5 nM	330 nM	2550 nM	49500 nM	24 nM	–	–	–	–	–	IC50 [7]: 100000 nM
O=C(CCC(NS(=O)(=O)c1ccc2oc3ccccc3c2c1)C(=O)O)Nc1ccc(Cl)cc1 (stereo not drawn) [Example F12, 4-(4-Chloro-phenylcarbamoyl)-2-(dibenzofuran-2-sulfonylamino)-butyric acid]	–	–	–	–	–	700 nM	3700 nM	32400 nM	> 100000 nM	300 nM	–
O=C(CCC(NS(=O)(=O)c1ccc2oc3ccccc3c2c1)C(=O)O)NCCCCc1ccccc1 (stereo not drawn) [Example F13, 2-(Dibenzofuran-2-sulfonylamino)-4-(4-phenyl-butylcarbamoyl)-butyric acid]	–	–	–	–	–	26500 nM	24100 nM	> 100000 nM	> 100000 nM	9300 nM	–
Cn1cccc1CCNC(=O)CCC(NS(=O)(=O)c1ccc2oc3ccccc3c2c1)C(=O)O (stereo not drawn) [Example F14, 2-(Dibenzofuran-2-sulfonylamino)-4-[2-(1-methyl-1H-pyrrol-2-yl)-ethylcarbamoyl]-butyric acid]	–	–	–	–	–	1400 nM	2400 nM	57600 nM	> 100000 nM	400 nM	–
COc1ccccc1CNC(=O)CCC(NS(=O)(=O)c1ccc2oc3ccccc3c2c1)C(=O)O (stereo not drawn) [Example F15, 2-(Dibenzofuran-2-sulfonylamino)-4-(2-methoxy-benzylcarbamoyl)-butyric acid]	–	–	–	–	–	1800 nM	600 nM	36900 nM	> 100000 nM	300 nM	–
O=C(CCC(NS(=O)(=O)c1ccc2oc3ccccc3c2c1)C(=O)O)NCc1cccc2ccccc12 (stereo not drawn) [Example F16]	–	–	–	–	–	1100 nM	1000 nM	22100 nM	> 100000 nM	400 nM	–
CNC(=O)[C@H](Cc1c[nH]c2ccccc12)NC(=O)[C@@H](CC(=O)NO)CC(C)C [GM6001]	–	–	–	–	–	–	–	–	–	–	effect on EAE [10]: suppressed the development or reversed the clinical expression of experimental allergic encephalomyelitis (EAE) in a dose dependent manner
TIMP-1: TIMP-1; TIMPs are natural endogenous inhibitors of MMPs	–	–	–	–	–	–	–	–	–	–	formation of collagen fragments [11]: prevented the formation of collagen fragments
